The text below walks through data of patent US20150352108A1, “AMINO-PYRIMIDINE COMPOUNDS AS INHIBITORS OF TBK1 AND/OR IKK EPSILON” (Alzheimer's Institute of America, priority 2009, published 2015).

Molecules are shown by their SMILES. Like-named read-outs stand apart in the source and are kept apart here.

Assay [1] addresses T1, IKKε (Homo sapiens, UniProt Q14164).
T1 construct: His-tag; made in house; host or cells: Sf9 insect cells
T1 sequence (Q14164 1-716): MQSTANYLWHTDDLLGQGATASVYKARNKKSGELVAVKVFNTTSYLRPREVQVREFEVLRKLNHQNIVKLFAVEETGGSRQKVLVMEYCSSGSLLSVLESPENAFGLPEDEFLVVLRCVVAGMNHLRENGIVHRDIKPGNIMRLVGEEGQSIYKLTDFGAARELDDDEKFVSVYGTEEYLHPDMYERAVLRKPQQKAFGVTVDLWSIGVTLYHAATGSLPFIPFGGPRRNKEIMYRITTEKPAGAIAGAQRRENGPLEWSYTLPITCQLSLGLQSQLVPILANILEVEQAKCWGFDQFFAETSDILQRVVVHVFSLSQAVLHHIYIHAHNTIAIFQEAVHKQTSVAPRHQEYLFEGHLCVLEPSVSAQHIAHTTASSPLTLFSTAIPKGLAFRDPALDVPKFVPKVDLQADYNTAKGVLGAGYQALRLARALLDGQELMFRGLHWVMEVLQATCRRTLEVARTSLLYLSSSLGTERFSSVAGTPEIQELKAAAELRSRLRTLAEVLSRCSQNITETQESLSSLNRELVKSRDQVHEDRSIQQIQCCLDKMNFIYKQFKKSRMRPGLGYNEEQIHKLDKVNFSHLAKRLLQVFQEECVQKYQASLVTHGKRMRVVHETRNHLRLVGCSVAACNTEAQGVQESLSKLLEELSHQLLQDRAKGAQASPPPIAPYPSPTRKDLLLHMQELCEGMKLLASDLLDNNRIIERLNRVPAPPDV
The experiment in a line: In-vitro IKKε kinase assay ([γ33]ATP filter-plate). The assay is classed as biochemical. In outline:
(§1)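 His-tagged IKKε and TBK1 from Sf9 cells were assayed with myelin basic protein or casein and [γ33]ATP at 2×Km ATP (32 μM for IKKε, 60 μM for TBK1). Enzyme was 0.1 or 0.015 μg/ml for IKKε and 0.1 or 0.02 μg/ml for TBK1 (normal/sensitized). Reactions ran 30-45 min, were filter-captured, scintillation-counted, and normalized to DMSO after background subtraction.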

For assay [2], the target named is T2, TBK1 (Homo sapiens, UniProt Q9UHD2).
T2 construct: His-tag; made in house; host or cells: Sf9 insect cells
T2 sequence (Q9UHD2 1-729): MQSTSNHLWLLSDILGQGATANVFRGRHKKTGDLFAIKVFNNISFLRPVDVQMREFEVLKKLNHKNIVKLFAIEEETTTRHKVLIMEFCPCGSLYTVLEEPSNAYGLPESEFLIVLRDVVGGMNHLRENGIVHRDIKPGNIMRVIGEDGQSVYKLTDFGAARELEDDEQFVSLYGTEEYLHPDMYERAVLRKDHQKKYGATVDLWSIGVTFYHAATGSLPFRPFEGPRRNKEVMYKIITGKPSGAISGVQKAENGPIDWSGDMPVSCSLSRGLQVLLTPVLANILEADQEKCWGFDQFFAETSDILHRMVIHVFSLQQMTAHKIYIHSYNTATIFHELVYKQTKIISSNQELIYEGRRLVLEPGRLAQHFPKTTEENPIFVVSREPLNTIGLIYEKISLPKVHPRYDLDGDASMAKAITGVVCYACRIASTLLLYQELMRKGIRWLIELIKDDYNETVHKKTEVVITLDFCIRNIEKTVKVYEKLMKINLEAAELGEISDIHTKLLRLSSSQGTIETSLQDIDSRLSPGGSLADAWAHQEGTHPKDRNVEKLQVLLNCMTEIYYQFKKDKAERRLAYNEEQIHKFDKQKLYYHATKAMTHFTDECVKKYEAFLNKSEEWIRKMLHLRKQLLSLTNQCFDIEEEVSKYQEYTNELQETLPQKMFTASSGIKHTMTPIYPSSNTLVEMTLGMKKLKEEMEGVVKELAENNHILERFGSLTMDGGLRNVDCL
The experiment in a line: In-vitro TBK1 kinase assay ([γ33]ATP filter-plate). It counts as biochemical. In outline:
as §1

Setting [3] is: text bins, read-out: IC50 for inhibition of the kinase activity of IKKε.
Where [4] appears, read: text bins, read-out: IC50 for inhibition of the kinase activity of TBK1.

Turning to `COc1ccc(-c2ccnc(Nc3cc(CN4CCOCC4)c(OC)c(OC)c3)n2)cc1C#N` [Example 226, 5-(2-{[3,4-Dimethoxy-5-(morpholin-4-ylmethyl)phenyl]amino}pyrimidin-4-yl)-2-methoxybenzonitrile], the IC50 (commonly the midpoint of a concentration-inhibition curve) in assay [1] (setting [3]) is 5 to 50 nM; in assay [2] (setting [4]), 10 to 100 nM.

For `CN(C)CCOc1ccc(Nc2nccc(-c3cccc(C#N)c3)n2)cc1` [Example 291, 3-[2-({4-[2-(Dimethylamino)ethoxy]phenyl}amino)pyrimidin-4-yl]benzonitrile], the values for the IC50 in assay [1] (setting [3]) and in assay [2] (setting [4]) were 50 to 500 nM and 10 to 100 nM, respectively.

For the compound `CC(C)C(=O)Nc1ccc(-c2ccnc(Nc3cccc(OCCN4CCOCC4)c3)n2)cc1C#N` [compound 432, N-{2-cyano-4-[2-({3-[2-(morpholin-4-yl)ethoxy]phenyl}amino)pyrimidin-4-yl]phenyl}-2-methylpropanamide], the IC50 in assay [1] (setting [3]) lay within 5 to 50 nM; in assay [2] (setting [4]), 10 to 100 nM.

For `N#Cc1cc(-c2ccnc(Nc3cccc(N4CCOCC4)c3)n2)ccc1OC1CCOCC1` [compound 585, 5-(2-{[3-(Morpholin-4-yl)phenyl]amino}pyrimidin-4-yl)-2-(tetrahydro-2H-pyran-4-yloxy)benzonitrile], the concentration for half-maximal inhibition (IC50) in assay [1] (Table 3, read-out: IKKε IC50) is 0.4 nM; in assay [1] (setting [3]), under 5 nM; in assay [2] (Table 3, read-out: TBK1 IC50), 1.9 nM; in assay [2] (setting [4]) it was under 10 nM.

Turning to `COc1cc(NC(=O)NCCO)cc(Nc2nccc(-c3ccc(OC)c(C#N)c3)n2)c1` [compound 295, 1-(3-{[4-(3-Cyano-4-methoxyphenyl)pyrimidin-2-yl]amino}-5-methoxyphenyl)-3-(2-hydroxyethyl)urea], the figures for the IC50 in assay [1] (setting [3]) and in assay [2] (setting [4]) were 5 to 50 nM and 10 to 100 nM, respectively.

`CC(C)C(=O)Nc1ccc(-c2ccnc(Nc3ccc(CCN4CCOCC4)cc3)n2)cc1C#N` [compound 463, N-{2-cyano-4-[2-({4-[2-(morpholin-4-yl)ethyl]phenyl}amino)pyrimidin-4-yl]phenyl}-2-methylpropanamide]: the half-maximal inhibitory concentration (IC50) in assay [1] (setting [3]) lay in the range of 5 to 50 nM; in assay [2] (setting [4]), 10 to 100 nM.

Take `COCCNC(=O)c1ccc(Nc2nccc(-c3ccc(NC(=O)C4CC4)c(C#N)c3)n2)cc1OC` [compound 558, 4-[(4-{3-Cyano-4-[(cyclopropylcarbonyl)amino]phenyl}pyrimidin-2-yl)amino]-2-methoxy-N-(2-methoxyethyl) benzamide]: the values for the IC50 in assay [1] (setting [3]) and in assay [2] (setting [4]) were under 5 nM and under 10 nM, respectively.

Consider `COc1cc(Nc2nccc(-c3ccc(OC4CCOCC4)c(C#N)c3)n2)ccc1OCCOCCNS(=O)(=O)N1CCOCC1` [Example 29, N-(2-{2-[4-({4-[3-cyano-4-(tetrahydro-2H-pyran-4-yloxy)phenyl]pyrimidin-2-yl}amino)-2-methoxyphenoxy]ethoxy}ethyl) morpholine-4-sulfonamide], for which the values for the half-maximal inhibitory concentration (IC50) in assay [1] (setting [3]) and in assay [2] (setting [4]) were under 5 nM and under 10 nM, respectively.

As for `COc1ccc(Nc2nccc(-c3ccc(NC(C)=O)c(C#N)c3)n2)cc1OC` [Example 136, N-(2-Cyano-4-{2-[(3,4-dimethoxyphenyl)amino]pyrimidin-4-yl}phenyl)acetamide], the IC50 in assay [1] (setting [3]) lay in the range of 5 to 50 nM; in assay [2] (setting [4]), 10 to 100 nM.

Take `CN1CCN(c2ccc(Nc3nccc(-c4ccc(OC5CCN(C(=O)CO)C5)c(C#N)c4)n3)cc2)CC1` (centres unmarked) [Example 254, 2-{[1-(hydroxyacetyl)pyrrolidin-3-yl]oxy}-5-(2-{[4-(4-methylpiperazin-1-yl)phenyl]amino}pyrimidin-4-yl)benzonitrile]: the figures for the IC50 in assay [1] (setting [3]) and in assay [2] (setting [4]) were 5 to 50 nM and under 10 nM, respectively.

Take `COc1ccc(Nc2nccc(-c3ccc(C)c(C#N)c3)n2)cc1OC` [Example 85, 5-{2-[(3,4-Dimethoxyphenyl)amino]pyrimidin-4-yl}-2-methylbenzonitrile]: the IC50 fell in the range of 5 to 50 nM in assay [1] (setting [3]) and 10 to 100 nM in assay [2] (setting [4]).

In the case of `COCC(=O)Nc1cc(Nc2nccc(-c3ccc(OC)c(C#N)c3)n2)cc(OC)c1` [Example 278, N-(3-{[4-(3-Cyano-4-methoxyphenyl)pyrimidin-2-yl]amino}-5-methoxyphenyl)-2-methoxyacetamide], the IC50 fell in the range of 5 to 50 nM in assay [1] (setting [3]) and 10 to 100 nM in assay [2] (setting [4]).

In the case of `COc1ccc(-c2ccnc(Nc3ccc(N4CCN(C)C(=O)C4)c(OC)c3)n2)cc1C#N` [Example 124], the IC50 in assay [1] (setting [3]) is under 5 nM; in assay [2] (setting [4]) it was under 10 nM.

In the case of `N#Cc1cccc(-c2ccnc(Nc3cccc(S(N)(=O)=O)c3)n2)c1` [compound 373], the IC50 was under 5 nM in assay [1] (setting [3]) and 10 to 100 nM in assay [2] (setting [4]).

For the compound `N#Cc1cc(-c2ccnc(Nc3ccc(N4CCOCC4)cc3)n2)ccc1OC1CCN(C(=O)CN)CC1` [Example 268, 2-[(1-Glycylpiperidin-4-yl)oxy]-5-(2-{[4-(morpholin-4-yl)phenyl]amino}pyrimidin-4-yl)benzonitrile], the IC50 was 5 to 50 nM in assay [1] (setting [3]) and under 10 nM in assay [2] (setting [4]).

For the compound `N#Cc1cc(-c2ccnc(Nc3ccc(N4CCOCC4)c(Cl)c3)n2)ccc1OC1CCOCC1` [compound 374, 5-(2-{[3-chloro-4-(morpholin-4-yl)phenyl]amino}pyrimidin-4-yl)-2-(tetrahydro-2H-pyran-4-yloxy)benzonitrile], the concentration for half-maximal inhibition (IC50) was under 5 nM in assay [1] (setting [3]) and under 10 nM in assay [2] (setting [4]).

On to `COc1cc(C#N)cc(-c2ccnc(Nc3ccc(OC)c(OC)c3)n2)c1` [Example 172, 3-{2-[(3,4-Dimethoxyphenyl)amino]pyrimidin-4-yl}-5-methoxybenzonitrile], for which the IC50 lay in the range of 5 to 50 nM in assay [1] (setting [3]) and 10 to 100 nM in assay [2] (setting [4]).

On to `CC(C)Oc1ccc(-c2ccnc(Nc3ccc(N4CCOCC4)cc3)n2)cc1C#N` [Example 191, 5-(2-{[4-(Morpholin-4-yl)phenyl]amino}pyrimidin-4-yl)-2-(propan-2-yloxy)benzonitrile], for which the concentration for half-maximal inhibition (IC50) is under 5 nM in assay [1] (setting [3]) and under 10 nM in assay [2] (setting [4]).

With `N#Cc1cc(-c2ccnc(Nc3ccc(NC(=O)Nc4cccnc4)cc3)n2)ccc1OC1CCOCC1` [Example 14, 1-[4-({4-[3-cyano-4-(tetrahydro-2H-pyran-4-yloxy)phenyl]pyrimidin-2-yl}amino)phenyl]-3-pyridin-3-ylurea], the IC50 was under 5 nM in assay [1] (setting [3]) and under 10 nM in assay [2] (setting [4]).

Take `COc1cc(Nc2nccc(-c3ccc(OC4CCN(C(C)=O)CC4)c(C#N)c3)n2)cc(OC)c1OC` [Example 34, 2-[(1-acetylpiperidin-4-yl)oxy]-5-{2-[(3,4,5-trimethoxyphenyl)amino]pyrimidin-4-yl}benzonitrile]: the IC50 in assay [1] (setting [3]) is under 5 nM; in assay [2] (setting [4]) it was under 10 nM.

With `COCCNC(=O)c1ccc(Nc2nccc(-c3ccc(OCC(C)C)c(C#N)c3)n2)cc1` [compound 565, 4-({4-[3-Cyano-4-(2-methylpropoxy)phenyl]pyrimidin-2-yl}amino)-N-(2-methoxyethyl) benzamide], the IC50 in assay [1] (Table 3, read-out: IKKε IC50) is 0.6 nM; in assay [1] (setting [3]), under 5 nM; in assay [2] (Table 3, read-out: TBK1 IC50), 2.1 nM; in assay [2] (setting [4]), under 10 nM.

On to `N#Cc1cc(-c2ccnc(Nc3ccc(N4CCOCC4)cc3)n2)ccc1OC1CCN(C(=O)CCO)CC1` [Example 215, 2-{[1-(3-Hydroxypropanoyl)piperidin-4-yl]oxy}-5-(2-{[4-(morpholin-4-yl)phenyl]amino}pyrimidin-4-yl)benzonitrile], for which the IC50 was 5 to 50 nM in assay [1] (setting [3]) and under 10 nM in assay [2] (setting [4]).

Consider `COc1cc(Nc2nccc(-c3ccc(OC4CCOCC4)c(C#N)c3)n2)ccc1C(N)=O` [compound 311, 4-({4-[3-cyano-4-(tetrahydro-2H-pyran-4-yloxy)phenyl]pyrimidin-2-yl}amino)-2-methoxybenzamide], for which the IC50 was under 5 nM in assay [1] (setting [3]) and under 10 nM in assay [2] (setting [4]).
